Measured values published in article PMC12396409, “Screening and hit evaluation of a microbial metabolite library against the pathogenic Plasmodium falciparum and Toxoplasma gondii parasites” (International Journal for Parasitology: Drugs and Drug …, 2025).
Like-named read-outs stand apart in the source and are kept apart here.

What was measured:
[1] = test system: P. falciparum 3D7 parasites; experiment: P. falciparum growth inhibition assay, 1-cycle (72 h treatment), SYBR DNA staining (library screen at 2 μg/mL and dose-response); type: cell-based, Plasmodium falciparum
[2] = test system: P. falciparum 3D7 parasites; experiment: P. falciparum growth inhibition assay, 2-cycle (120 h treatment), delayed-death screen and dose-response; type: cell-based, Plasmodium falciparum
[3] = test system: T. gondii RH strain (RH-Tub-eYFP) tachyzoites; experiment: microbe, parasite or virus in culture; type: cell-based, Toxoplasma gondii; conditions: 72 h; for percent parasite growth at 2 µg/mL: Toxoplasma gondii
[4] = library screen at 2 μg/mL, 72 h, % growth, replicate 1
[5] = library screen at 2 μg/mL, 72 h, % growth, replicate 2
[6] = library screen at 2 μg/mL, 120 h, % growth, replicate 1
[7] = library screen at 2 μg/mL, 120 h, % growth, replicate 2
[8] = library screen at 2 μg/mL, % growth, replicate 1
[9] = library screen at 2 μg/mL, % growth, replicate 2
[10] = Plasmodium falciparum, 3D7, 72 h, P. falciparum, 72 h, screen at 2 μg/mL, replicate 1, read-out: Pf_72h_%Growth_Rep1
[11] = Plasmodium falciparum, 3D7, 72 h, P. falciparum, 72 h, screen at 2 μg/mL, replicate 2, read-out: Pf_72h_%Growth_Rep2
[12] = Plasmodium falciparum, 3D7, 120 h, P. falciparum, 120 h, screen at 2 μg/mL, replicate 1, read-out: Pf_120h_%Growth_Rep1
[13] = Plasmodium falciparum, 3D7, 120 h, P. falciparum, 120 h, screen at 2 μg/mL, replicate 2, read-out: Pf_120h_%Growth_Rep2
[14] = T. gondii, screen at 2 μg/mL, replicate 1, read-out: Tg_72h_%Growth_Rep1
[15] = T. gondii, screen at 2 μg/mL, replicate 2, read-out: Tg_72h_%Growth_Rep2
[16] = T. gondii, 2 μg/mL, values are growth (% of control)

`Cc1c2c(c(O)c3c(O)ccc(Cl)c13)C(=O)[C@]1(O)C(O)=C(C(N)=O)C(=O)[C@@H](N(C)C)[C@@H]1C2.Cl` [Anhydrochlortetracycline hydrochloride] was tested, and the Pf_72h_%Growth_Rep1 [1, 4] was 86.52%, the Pf_72h_%Growth_Rep2 [1, 5] was 88.12% and the Pf_120h_%Growth_Rep1 [2, 6] was 62.00%. It also gave a Pf_120h_%Growth_Rep2 [2, 7] of 93.26%, a Tg_72h_%Growth_Rep1 [3, 8] of 107.44% and a Tg_72h_%Growth_Rep2 [3, 9] of 94.77%.

`C[C@H]1CCCC(=O)CCCCCc2cc(O)cc(O)c2C(=O)O1` [Zearalanone] was tested, and the activity at 2 µg/mL [1, 10] was 31.9%, the activity at 2 µg/mL [1, 11] was 78.2% and the activity at 2 µg/mL [2, 12] was 102%. The activity at 2 µg/mL [2, 13] was 77.7%, the percent parasite growth at 2 µg/mL [3, 14] was 97% and the percent parasite growth at 2 µg/mL [3, 15] was 107%.

In the case of `CC=C(C)C(O)C(C)C=C(C)C=CCC(C)=CCc1nc(OC)c(OC)c(O)c1C` (stereo not drawn) [BIA-P1069], the Pf_72h_%Growth_Rep1 ([1]; P. falciparum 3D7, 72 h, parasite screen at 2 μg/mL, % growth, replicate 1) is reported as 80.36%, the Pf_72h_%Growth_Rep2 ([1]; P. falciparum 3D7, 72 h, parasite screen at 2 μg/mL, % growth, replicate 2) is reported as 61.30% and the Pf_120h_%Growth_Rep1 ([2]; P. falciparum 3D7, 120 h, parasite screen at 2 μg/mL, % growth, replicate 1) is reported as 92.39%. It also gave a Pf_120h_%Growth_Rep2 ([2]; P. falciparum 3D7, 120 h, parasite screen at 2 μg/mL, % growth, replicate 2) of 102.66%, a Tg_72h_%Growth_Rep1 ([3]; T. gondii, parasite screen at 2 μg/mL, % growth, replicate 1) of 120.41% and a Tg_72h_%Growth_Rep2 ([3]; T. gondii, parasite screen at 2 μg/mL, % growth, replicate 2) of 75.10%.

In the case of `O=C(O)/C=C/c1ccc(O)c(O)c1` [Caffeic acid], the activity at 2 µg/mL [1, 10] is reported as 83.7%, the activity at 2 µg/mL [1, 11] is reported as 86% and the activity at 2 µg/mL [2, 12] is reported as 144%. The activity at 2 µg/mL [2, 13] was 88.4%, the percent parasite growth at 2 µg/mL [3, 14] was 101% and the percent parasite growth at 2 µg/mL [3, 15] was 88.3%.

`CC[C@H]1OC(=O)[C@H](C)[C@@H](O[C@H]2C[C@@](C)(O)[C@@H](O)[C@H](C)O2)[C@H](C)[C@@H](O[C@@H]2O[C@H](C)C[C@H](N(C)C)[C@H]2O)[C@](C)(O)C[C@@H](C)C(=O)[C@H](C)[C@@H](O)[C@]1(C)O` [Erythromycin C] gave a Pf_72h_%Growth_Rep1 [1, 4] of 81.84%, a Pf_72h_%Growth_Rep2 [1, 5] of 74.13% and a Pf_120h_%Growth_Rep1 [2, 6] of 93.33%. For the same compound, the Pf_120h_%Growth_Rep2 [2, 7] was 77.67%, the Tg_72h_%Growth_Rep1 [3, 8] was 45.84% and the Tg_72h_%Growth_Rep2 [3, 9] was 43.52%.

For `CO[C@@H]1[C@@H](O[C@@H]2O[C@H](C)[C@@H](O[C@H]3C[C@@](C)(O)[C@@H](OC(=O)CC(C)C)[C@H](C)O3)[C@H](N(C)C)[C@H]2O)[C@@H](CC=O)C[C@@H](C)[C@@H](O)/C=C/C=C/C[C@@H](C)OC(=O)C[C@H]1OC(C)=O` [Josamycin (Leucomycin A3), reference compound], the activity at 2 µg/mL ([1]; Plasmodium falciparum, 3D7, 72 h, P. falciparum, 2 μg/mL, 72 h; read-out: 1) Growth (%) at 72 h) was 53.5%, the “3) Fold change (72 h/120 h)” value [2] was 5.3 and the activity at 2 µg/mL ([2]; Plasmodium falciparum, 3D7, 120 h, P. falciparum, 2 μg/mL, 120 h; read-out: 2) Growth (%) at 120 h) was 10.1%. The Mean ([3]; T. gondii, 2 μg/mL, mean of both replicates, growth (% of control)) was 20.93, the “Replicate 1” value [3, 16] was 18.33 and the “Replicate 2” value [3, 16] was 23.52.

With `CC1(C)C=Cc2cc3ccc(=O)oc3cc2O1` [Xanthyletin] the activity at 2 µg/mL ([1]; Plasmodium falciparum, 3D7, P. falciparum, 72 h, screen at 2 μg/mL, replicate 1, read-out: Pf_72h_%Growth_Rep1) was 88.6%, the activity at 2 µg/mL ([1]; Plasmodium falciparum, 3D7, P. falciparum, 72 h, screen at 2 μg/mL, replicate 2, read-out: Pf_72h_%Growth_Rep2) was 22.4% and the activity at 2 µg/mL ([2]; Plasmodium falciparum, 3D7, P. falciparum, 120 h, screen at 2 μg/mL, replicate 1, read-out: Pf_120h_%Growth_Rep1) was 106%. For the same compound, the activity at 2 µg/mL ([2]; Plasmodium falciparum, 3D7, P. falciparum, 120 h, screen at 2 μg/mL, replicate 2, read-out: Pf_120h_%Growth_Rep2) was 81.1%, the percent parasite growth at 2 µg/mL [3, 14] was 146% and the percent parasite growth at 2 µg/mL [3, 15] was 65.7%.

`COc1ccc(C[C@H]2NC[C@H](O)[C@H]2OC(C)=O)cc1` [Anisomycin] gave a Pf_72h_%Growth_Rep1 [1, 4] of 2.13%, a Pf_72h_%Growth_Rep2 [1, 5] of 2.45% and a Pf_120h_%Growth_Rep1 [2, 6] of 9.82%. It also gave a Pf_120h_%Growth_Rep2 [2, 7] of -15.33%, a Tg_72h_%Growth_Rep1 [3, 8] of 0.93% and a Tg_72h_%Growth_Rep2 [3, 9] of 1.73%.

With `O=C1N[C@@H](Cc2ccccc2)C(=O)N[C@H]1Cc1ccccc1` [Cyclo(L-Phe-L-Phe)] the Pf_72h_%Growth_Rep1 ([1]; P. falciparum, 72 h, screen at 2 μg/mL, replicate 1) was 87.79%, the Pf_72h_%Growth_Rep2 ([1]; P. falciparum, 72 h, screen at 2 μg/mL, replicate 2) was 85.43% and the Pf_120h_%Growth_Rep1 ([2]; P. falciparum, 120 h, screen at 2 μg/mL, replicate 1) was 99.78%. It also gave a Pf_120h_%Growth_Rep2 ([2]; P. falciparum, 120 h, screen at 2 μg/mL, replicate 2) of 97.44%, a Tg_72h_%Growth_Rep1 ([3]; T. gondii, screen at 2 μg/mL, replicate 1) of 128.27% and a Tg_72h_%Growth_Rep2 ([3]; T. gondii, screen at 2 μg/mL, replicate 2) of 97.95%.
